Entries after “also recorded” stand apart in the source; their conditions may differ.

Test [1] relates to acellular porcine lung ECM. The test can be described thus: Ex vivo metabolic engineering of porcine left lung ECM. As to conditions: 50 μM, one day, perfusion 300 ml/min.
Procedure: For ex vivo metabolic engineering of the porcine lung, the left lung was freshly isolated from a male Yorkshire swine (18-20 kg, Tufts University). The isolated porcine left lung was cultured DMEM/F12-FBS medium, with the supplementation of Ac4GalNAz (50 μM) or DMSO (0.1%), for 24 hours in a bioreactor under constant rate perfusion (300 ml/min) through the left main PA. 3 L of medium was initially used and was refreshed once with another 2 L of medium after the initial 16 hours of culture. A parallel oxygenation loop was used during the culture at a flow rate of 150 ml/min. Following culture, the porcine left lung was decellularized by sequential single-pass perfusion through the left main PA with 0.5% SDS, distilled water, 1% Triton X and PBS, adapted from a previously described method (Zhou, H. et al. Bioengineering Human Lung Grafts on Porcine Matrix. Annals of Surgery Publish Ahead of Print (2017)). […] The fluorescence intensity of Azide-Biotin-Streptavidin and Laminin staining was quantified using ImageJ (NIH). […] Following BCA quantification, the protein samples were analyzed using SDS-PAGE under reducing condition, transferred to nitrocellulose blotting membranes, and incubated with primary antibodies overnight at 4° C., followed by incubation with HRP-conjugated secondary antibodies for 1 hour at room temperature before autoradiography. […]
A further test deals with rat lung ECM. The test can be described thus: Ex vivo metabolic engineering of rat lung ECM. As to conditions: 50 μM, one day, bioreactor perfusion 5 ml/min, Cu(I) catalyst in click with biotin-alkyne. As for the experimental part:
For ex vivo metabolic engineering of the rat lung, the lung was freshly harvested from a male Sprague-Dawley rat (100-125 g). The isolated rat lung was cultured in 100 ml of DMEM/F12 medium containing 10% fetal bovine serum (DMEM/F12-FBS), with the supplementation of Ac4GalNAz (50 μM) or DMSO (0.1%), for 24 hours in a bioreactor under constant rate perfusion (5 ml/min) through the PA, followed by perfusion decellularization as described above.
All samples were fixed with 4% paraformaldehyde (Boston BioProducts), paraffin-embedded, and sectioned at 5-μm thickness. Following deparaffinization, rehydration and antigen retrieval using Antigen Unmasking Solution (Vector Laboratories), the sections were processed for either on-section click reaction or regular histological staining. […] For regular histological staining of biotin and Laminin, the sections were incubated with Rabbit-anti-Laminin antibody (Abcam, ab11575, 1:200) overnight at 4° C., followed by staining with Alexa Fluor 488-conjugated Donkey-anti-Rabbit antibody (A-21206, 1:500) and Alexa Fluor 647-conjugated Streptavidin (Life Technologies, S-32357, 1:500). […] The fluorescence intensity of Azide-Biotin-Streptavidin and Laminin staining was quantified using ImageJ (NIH). […]
The presence of azide labeling in the decellularized scaffolds were evaluated by performing copper-catalyzed click reaction. […]

Test [2] concerns decellularized scaffolds of the rat carotid artery, heart, liver, kidney and skin. In words: In vivo metabolic labeling of ECM of other rat organs/tissues.
Procedure: Male Sprague-Dawley rats (100-125 g, Charles River Laboratories) was administered with metabolic labeling reagents (Ac4GalNAz, Ac4GlcNAz or Ac4ManNAz) (30 mg/day, Click Chemistry Tools) via intraperitoneal injection daily for three days. […] Full-thickness skin grafts were harvested from the abdomen of the animal and decellularized by immersion with agitation in 1% SDS. Decellularized organ and tissue scaffolds were washed sequentially with distilled water, 1% Triton X and PBS.
(§1) All samples were fixed with 4% paraformaldehyde (Boston BioProducts), paraffin-embedded, and sectioned at 5-μm thickness. Following deparaffinization, rehydration and antigen retrieval using Antigen Unmasking Solution (Vector Laboratories), the sections were processed for either on-section click reaction or regular histological staining. For on-section click reaction, sections of acellular organ scaffolds derived from in vivo or ex vivo metabolic engineering were incubated with Biotin-Alkyne click reaction mix, with and without copper (II) sulfate, for 1 hour at room temperature, followed by extensive washing with PBS. For regular histological staining of biotin and Laminin, the sections were incubated with Rabbit-anti-Laminin antibody (Abcam, ab11575, 1:200) overnight at 4° C., followed by staining with Alexa Fluor 488-conjugated Donkey-anti-Rabbit antibody (A-21206, 1:500) and Alexa Fluor 647-conjugated Streptavidin (Life Technologies, S-32357, 1:500). Images were acquired using a Nikon Eclipse TE200 microscope and NIS-Elements imaging software. The fluorescence intensity of Azide-Biotin-Streptavidin and Laminin staining was quantified using ImageJ (NIH).
For metabolic engineering of organs/tissues in vivo in the rat model, azide-labeled sugars (300 mg/kg body weight in 70% DMSO) were administered through intraperitoneal injection daily. One day after the last azide-labeled sugar administration, organs/tissues were harvested and perfusion decellularized (See FIGS. 1 and 13). The presence of azide labeling in the decellularized scaffolds were evaluated by performing copper-catalyzed click reaction. […]
Test [3] has as its system decellularized rat lung scaffolds. The test can be described thus: In vivo metabolic labeling of rat lung ECM with azide-labeled sugars.
Procedure: All animal experiments were approved by the Massachusetts General Hospital Institutional Animal Care and Use Committee and performed in compliance with the Animal Welfare Act. Male Sprague-Dawley rats (100-125 g, Charles River Laboratories) was administered with metabolic labeling reagents (Ac4GalNAz, Ac4GlcNAz or Ac4ManNAz) (30 mg/day, Click Chemistry Tools) via intraperitoneal injection daily for three days. […] Decellularized organ and tissue scaffolds were washed sequentially with distilled water, 1% Triton X and PBS.
as §1
To conjugate Biotin-Alkyne onto the azide-labeled acellular lung ECM for Western blot analysis, a small piece of lung tissue was homogenized with gentleMACS Dissociator (Miltenyi Biotec) in PBS, and incubated with 1 ml Biotin-Alkyne click reaction mix for 1 hour at room temperature, followed by extensive washing in PBS. The ECM proteins from the clicked lung tissue was extracted using urea buffer as described below. […] Following BCA quantification, the protein samples were analyzed using SDS-PAGE under reducing condition, transferred to nitrocellulose blotting membranes, and incubated with primary antibodies overnight at 4° C., followed by incubation with HRP-conjugated secondary antibodies for 1 hour at room temperature before autoradiography. […]
Test [4] can be described thus: Copper-free click reaction of DBCO-activated biotin on donor lung during cold preservation. On the set-up: species or system rat. The conditions noted are these: DBCO-activated biotin 100 μM in Perfadex on ice, within one hour.
Procedure: The procedure involves two steps. In the first step, the donor rat was injected with Ac4GalNAz for three days (as described in Example 4). This allowed for metabolic labeling of the donor lung with azido tags. In the second step, the donor lung with azido labeling was preserved in preservation solution (Perfadex) containing DBCO-activated biotin at 100 μM concentration on ice for 1 hour. The lung was then intensively washed with preservation solution (Perfadex) and prepared for transplantation. The lung is fixed for histological staining of the immobilized biologically active molecule (as exemplified by biotin).
DBCO-activated biotin was used a proof-of-principle.
Test [5] in a line: Click reaction of azide-labeled decellularized rat epigastric flaps with Vancomycin-alkyne. As to conditions: Ac4GalNAz-labeled REF versus DMSO control, Vancomycin-alkyne 100 μM click. The protocol:
Vancomycin is made clickable by conjugating an alkyne group to the only primary amine present as described above (see, e.g., FIG. 22, Example 3). The structure of the resulting clickable vancomycin-alkyne was confirmed by LC-MS/MS analysis (FIG. 23). Using the previously described click reaction, Vancomycin was immobilized onto the ECM. Copper-catalyzed click reaction was performed on decellularized rat epigastric flaps by perfusion (0.5 ml/min) using Vancomycin-alkyne (100 μM) and Click-iT® Cell Reaction Buffer Kit (ThermoFisher, Catalog number: C10269) for one hour at room temperature, followed by intensive washing and detection of immobilized vancomycin using a vancomycin-specific antibody.

Consider `CC(=O)OC[C@H]1OC(OC(C)=O)[C@H](NC(=O)CN=[N+]=[N-])[C@@H](OC(C)=O)[C@H]1OC(C)=O` (stereo partly shown) [Ac4GalNAz, tetraacylated N-azidoacetylgalactosamine], for which the “azide incorporation into acellular porcine lung ECM after ex vivo culture” value in test [1] is “specific and covalent azide incorporation”. For the same molecule, the “azide labeling of the lung ECM after ex vivo culture” value in the test on rat lung ECM was “robust covalent azide labeling”. Besides, the “in vivo metabolic azide labeling of decellularized scaffolds” value in test [2] (rat carotid artery, heart, liver, kidney and skin, three-day intraperitoneal administration) was “efficient; also recorded: strong and specific ECM labeling”. In test [2] (rat, 3 days of metabolic labeling), the “metabolic labeling of decellularized scaffolds of blood vessels and skin flaps” value is “efficient metabolic labeling”. In addition, the “metabolic labeling efficiency of decellularized rat lung scaffolds” value in test [3] (3 days of metabolic labeling in donor rats, comparing to Ac4GlcNAz and Ac4ManNAz) was “superior labeling efficiency”. Moreover, in test [3] (after click conjugation with biotin-alkyne), the “biotin labeling of isolated lung ECM proteins by western blot” value is “abundance of biotin labeling”. Further, in test [3] (azide-biotin-streptavidin intensity normalized to Laminin, compared with Ac4ManNAz and Ac4GlcNAz), the “metabolic azide labeling intensity in acellular lungs” value is given as “strongest”.
`O=C(O)CCCC[C@@H]1SC[C@@H]2NC(=O)N[C@@H]21` [biotin]: in test [4], the “immobilization of biotin onto donor lung tissue” value is “high efficiency”.
With `CN[C@H](CC(C)C)C(=O)N[C@H]1C(=O)N[C@@H](CC(N)=O)C(=O)N[C@H]2C(=O)N[C@H]3C(=O)N[C@H](C(=O)N[C@H](C(=O)O)c4cc(O)cc(O)c4-c4cc3ccc4O)[C@H](O)c3ccc(c(Cl)c3)Oc3cc2cc(c3O[C@@H]2O[C@H](CO)[C@@H](O)[C@H](O)[C@H]2O[C@H]2C[C@](C)(N)[C@H](O)[C@H](C)O2)Oc2ccc(cc2Cl)[C@H]1O` [vancomycin, Vancomycin], the “vancomycin staining fluorescence intensity on whole mount REF” value in test [5] (p<0.001) is recorded as “increase”. Further, the “vancomycin staining fluorescence intensity on REF cross-sections” value in test [5] (p<0.05) is “increase”.

The values above are taken from US12441751B2, “Metabolic labeling and molecular enhancement of biological materials using bioorthogonal reactions” (priority 2016, dated 2025).
